Data: US20040224880A1, “Regulation of gastric acid secretion by inwardly rectifying k+ channels” (Beth Israel Deaconess Medical Center, Inc., priority 2001, published 2004)
Entries after “also recorded” stand apart in the source; their conditions may differ. Read-outs that look alike come from different tables or passages of the source.

Experiments:
bullfrog gastric mucosa [1] = assay: Acid secretion of frog (bullfrog) gastric mucosa stimulated with histamine/carbachol or forskolin; type: cell-based; conditions: for Rate of decline in acid secretion: from the linear portion of the inhibition curve, 1 mM cimetidine, 10 mM NH4Cl, 2 mM KCN; for effect of 0.5 and 1 mM barium on acid secretion (in words): up to 3 hr; for acid secretion with 10 mM imidazole, 3 hr: 10 mM nutrient imidazole (5 mM Iz), pH 7.1, 3 hr
bullfrog gastric mucosa [2] = type: cell-based
Protocol: FIG. 1B Electrophysiology in the bullfrog gastric mucosa. […] Removal of NH4Cl was followed by a complete recovery of R within 30 min. Data were obtained from 21 experiments and are expressed as the mean±SEM.
FIG. 1C Electrophysiology in the bullfrog gastric mucosa. […] Removal of NH4Cl was followed by a complete recovery of PD within 30 min. Data were obtained from 21 experiments and are expressed as the mean±SEM.

bullfrog gastric mucosa [3] = system: bullfrog gastric mucosa
[4] = Time 90″: after 90 min stimulation with histamine/carbachol, start of incubation with 1 mM cimetidine, 0.3 mM omeprazole, 10 mM NH4Cl or 2 mM KCN
[5] = Time 120″, 1 mM cimetidine or 0.3 mM omeprazole added at 90 min
[6] = Time 150″, 1 mM cimetidine or 0.3 mM omeprazole added at 90 min
[7] = blocker first (0.5-5 mM barium, 1-10 mM TEA, 10-100 μM tolbutamide, 10 μM clotrimazole, imidazole, 100 μM bumetamide, amiloride, 1 mM oubain, 0.3 mM DIDS), then 10 mM NH4Cl, within 30 min
[8] = blocker first, then 10 mM NH4Cl, within 30 min
[9] = nutrient solution, vs control tissues, imidazole 100 μM Iz (200 μM nutrient), TEA 1-10 mM, tolbutamide 10-100 μM, clotrimazole 10 μM, bumetamide 100 μM, amiloride, oubain 1 mM, DIDS 0.3 mM, KCN, KCl 2 mM, methylamine
[10] = 10 mM NH4Cl within 30 min, 0.5, 1, 5 mM barium, TEA, tolbutamide, clotrimazole, vs control tissues
[11] = 10 mM NH4Cl within 30 min, barium, TEA, tolbutamide, clotrimazole, vs control tissues
[12] = blocker first (0.5 and 1 mM barium, TEA, tolbutamide, clotrimazole), then 10 mM NH4Cl, within 30 min

Compound: CN/C(=N/CCSCc1nc[nH]c1C)NC#N [Cimetidine, cimetidine]
- Acid secretion (bullfrog gastric mucosa [1]; [4]): 5.59 ± 0.13 μEq/h · cm^2
- Acid secretion (bullfrog gastric mucosa [1]; [5]): 3.51 ± 0.21 μEq/h · cm^2
- Acid secretion (bullfrog gastric mucosa [1]; [6]): 0.83 ± 0.22 μEq/h · cm^2
- Rate of decline in acid secretion (bullfrog gastric mucosa [1]; 0.3 mM omeprazole): −0.07935 (μEq/h · cm^2)/min

Compound: O=S(=O)(O)c1cc(N=C=S)ccc1C=Cc1ccc(N=C=S)cc1S(=O)(=O)O [DIDS]
- acid secretion with DIDS (bullfrog gastric mucosa [1]; 0.3 mM DIDS, 60 min, from 5.25±0.12): 2.29±0.18 μEq/hr cm^2
- acid secretion after 10 mM NH4Cl added to tissues treated with the blocker (bullfrog gastric mucosa [1]; [7]): 0 μEq/hr cm^2
- effect of 10 mM NH4Cl on acid secretion of tissues treated with the blocker (in words) (bullfrog gastric mucosa [1]; [8]): declined; also recorded: immediately reduced acid secretion to zero
- effect on stimulated acid secretion (in words) (bullfrog gastric mucosa [1]; [9]): approximately one half of the initial rate; also recorded: partially, but not completely, inhibited

Compound: [Cl-].[K+] [KCl, Potassium chloride]
- effect on stimulated acid secretion (in words) (bullfrog gastric mucosa [1]): little effect on acid secretion

Compound: COc1ccc2[nH]c([S+]([O-])Cc3ncc(C)c(OC)c3C)nc2c1 (stereo not drawn) [Omeprazole, omeprazole]
- Acid secretion (bullfrog gastric mucosa [1]; [4]): 5.45 ± 0.30 μEq/h · cm^2
- Acid secretion (bullfrog gastric mucosa [1]; [5]): 2.03 ± 0.21 μEq/h · cm^2
- Acid secretion (bullfrog gastric mucosa [1]; [6]): 0.30 ± 0.10 μEq/h · cm^2
- Rate of decline in acid secretion (bullfrog gastric mucosa [1]; 0.3 mM omeprazole): −0.09034 (μEq/h · cm^2)/min

Compound: CC[N+](CC)(CC)CC [TEA, tetraethylammonium]
- acid secretion after 10 mM NH4Cl added to tissues treated with the blocker (bullfrog gastric mucosa [1]): 0 μEq/hr cm^2
- effect of 10 mM NH4Cl on acid secretion of tissues treated with the blocker (in words) (bullfrog gastric mucosa [1]): abolished
- effect on stimulated acid secretion (in words) (bullfrog gastric mucosa [1]): no effect on stimulated acid secretion; also recorded: no significant decline
- PD after 10 mM NH4Cl added to tissues treated with the blocker (in words) (bullfrog gastric mucosa [2]): increase in PD
- R after 10 mM NH4Cl added to tissues treated with the blocker (in words) (bullfrog gastric mucosa [2]): R increased in all tissues; also recorded: increase in R
- effect on potential difference (PD) of stimulated tissues (in words) (bullfrog gastric mucosa [2]): no effect
- effect on resistance (R) of stimulated tissues (in words) (bullfrog gastric mucosa [2]): no effect on R; also recorded: not significantly different from that of control tissues

Compound: N=C(N)NC(=O)c1nc(Cl)c(N)nc1N [amiloride]
- acid secretion after 10 mM NH4Cl added to tissues treated with the blocker (bullfrog gastric mucosa [1]; [7]): 0.188±0.140 μEq/hr cm^2
- effect of 10 mM NH4Cl on acid secretion of tissues treated with the blocker (in words) (bullfrog gastric mucosa [1]; [8]): declined
- effect on stimulated acid secretion (in words) (bullfrog gastric mucosa [1]; [9]): unchanged; also recorded: little effect on stimulated acid secretion; also recorded: no significant reduction in acid secretion

Compound: N [ammonia (NH3), ammonia]
- concentration of ammonia (NH3) that completely inhibits acid secretion within 30 min (bullfrog gastric mucosa [1]; NH3 present in 10 mM NH4Cl at pH 7.2, basolateral exposure): 92.5 µM
- NH3 lost from the nutrient solution (bullfrog gastric mucosa [3]; 10 mM): 61.46 µM
- luminal NH3 concentration after 30 min (bullfrog gastric mucosa [3]; 30 min, 10 mM): 0.00133 ± 0.00133 µM
- nutrient NH3 concentration at 30 min (bullfrog gastric mucosa [3]; 30 min, 10 mM): 538.3±6.7

Compound: [Ba] [barium]
- acid secretion with 0.5 mM barium (bullfrog gastric mucosa [1]; 0.5 mM barium, 3 hr (180 min), from 5.23±0.29): 4.12±0.38 μEq/hr cm^2
- acid secretion with 1 mM barium (bullfrog gastric mucosa [1]; 1 mM barium, 3 hr (180 min), from 5.35±0.22): 4.20±0.21 μEq/hr cm^2
- acid secretion with 5 mM barium (bullfrog gastric mucosa [1]; 5 mM barium, 3 hr (180 min), from 5.19±0.22): 2.89±0.33 μEq/hr cm^2
- reduction of acid secretion compared to control tissues (bullfrog gastric mucosa [1]; 5 mM barium, by 3 hr): 44%
- effect of 5 mM barium on acid secretion (in words) (bullfrog gastric mucosa [1]; 5 mM barium, vs control tissues): significantly (P=0.0085) different from control tissues; also recorded: significantly different from that of control tissues
- effect of 0.5 and 1 mM barium on acid secretion (in words) (bullfrog gastric mucosa [1]; vs control tissues): not different from that of control tissues; also recorded: inhibition of acid secretion does not occur
- effect of 0.5 and 1 mM barium on acid secretion (in words) (bullfrog gastric mucosa [1]; vs control tissues, listed as Barium): not significantly different from that of control tissues
- acid secretion after 10 mM NH4Cl added to tissues treated with the blocker (bullfrog gastric mucosa [1]; [7]): 0 μEq/hr cm^2
- effect of 10 mM NH4Cl on acid secretion of tissues treated with the blocker (in words) (bullfrog gastric mucosa [1]; [8]): abolished
- effect on resistance (R) of stimulated tissues (in words) (bullfrog gastric mucosa [2]; [10]): increased significantly; also recorded: significant increase in R
- effect on potential difference (PD) of stimulated tissues (in words) (bullfrog gastric mucosa [2]; [11]): unaffected; also recorded: little to no influence on PD; also recorded: not significantly different from that of control tissues
- R after 10 mM NH4Cl added to tissues treated with the blocker (in words) (bullfrog gastric mucosa [2]; [12]): R increased similar to that of control tissues; also recorded: increase in R
- PD after 10 mM NH4Cl added to tissues treated with the blocker (in words) (bullfrog gastric mucosa [2]; [8]): PD increased in all groups; also recorded: increase in PD

Compound: CCCCNc1cc(C(=O)O)cc(S(N)(=O)=O)c1Oc1ccccc1 [bumetamide]
- acid secretion after 10 mM NH4Cl added to tissues treated with the blocker (bullfrog gastric mucosa [1]; [7]): 0.645±0.278 μEq/hr cm^2
- effect of 10 mM NH4Cl on acid secretion of tissues treated with the blocker (in words) (bullfrog gastric mucosa [1]; [8]): declined
- effect on stimulated acid secretion (in words) (bullfrog gastric mucosa [1]; [9]): unchanged; also recorded: little effect on stimulated acid secretion; also recorded: no significant reduction in acid secretion

Compound: Clc1ccccc1C(c1ccccc1)(c1ccccc1)n1ccnc1 [clotrimazole]
- acid secretion after 10 mM NH4Cl added to tissues treated with the blocker (bullfrog gastric mucosa [1]; [7]): 0 μEq/hr cm^2
- effect of 10 mM NH4Cl on acid secretion of tissues treated with the blocker (in words) (bullfrog gastric mucosa [1]; [8]): abolished
- effect on stimulated acid secretion (in words) (bullfrog gastric mucosa [1]; [9]): no effect on stimulated acid secretion; also recorded: no significant decline
- effect on resistance (R) of stimulated tissues (in words) (bullfrog gastric mucosa [2]; [10]): no effect; also recorded: not significantly different from that of control tissues
- effect on potential difference (PD) of stimulated tissues (in words) (bullfrog gastric mucosa [2]; [11]): no effect
- R after 10 mM NH4Cl added to tissues treated with the blocker (in words) (bullfrog gastric mucosa [2]; [12]): increase in R
- PD after 10 mM NH4Cl added to tissues treated with the blocker (in words) (bullfrog gastric mucosa [2]; [8]): increase in PD

Compound: c1c[nH]cn1 [imidazole]
- acid secretion with 100 μM imidazole (bullfrog gastric mucosa [1]; 100 μM Iz, 3 hr (180 min), from 5.47±0.26): 4.86±0.29 μEq/hr cm^2
- acid secretion with 10 mM imidazole, 30 min (bullfrog gastric mucosa [1]; 10 mM imidazole (5 mM Iz, 5 mM Iz+), 30 min, from 6.60±0.43): 4.60±0.43 μEq/hr cm^2
- acid secretion with 10 mM imidazole, 3 hr (bullfrog gastric mucosa [1]; from 6.60±0.43): 4.06±0.46 μEq/hr cm^2
- acid secretion with 10 mM imidazole, 3 hr (bullfrog gastric mucosa [1]; from 6.60±0.43, listed as Iz): 4.03 μEq/hr cm^2
- acid secretion after 10 mM NH4Cl added to tissues treated with the blocker (bullfrog gastric mucosa [1]; [7]): 0±0 μEq/hr cm^2
- effect of 10 mM NH4Cl on acid secretion of tissues treated with the blocker (in words) (bullfrog gastric mucosa [1]; [8]): inhibited completely; also recorded: inhibited acid secretion immediately
- effect on stimulated acid secretion (in words) (bullfrog gastric mucosa [1]; [9]): no effect on acid secretion; also recorded: not significantly different from that of control tissues
- effect on stimulated acid secretion (in words) (bullfrog gastric mucosa [1]; nutrient solution, vs control tissues, imidazole 100 μM Iz (200 μM nutrient), TEA 1-10 mM, tolbutamide 10-100 μM, clotrimazole 10 μM, bumetamide 100 μM, amiloride, oubain 1 mM, DIDS 0.3 mM, KCN, KCl 2 mM, methylamine, listed as Iz): not significantly different from that of control tissues

Compound: CN [methylamine]
- acid secretion after methylamine washed from the nutrient solution (bullfrog gastric mucosa [1]): 3.74±0.41 μEq/hr cm^2
- acid secretion after washout, % of the starting level (bullfrog gastric mucosa [1]): 60%
- acid secretion with methylamine (bullfrog gastric mucosa [1]): 0.081±0.056 μEq/hr cm^2
- effect on stimulated acid secretion (in words) (bullfrog gastric mucosa [1]): rapidly inhibits acid secretion
- least (minimum) concentration required for complete inhibition of acid secretion within 30 min (bullfrog gastric mucosa [1]): 50 mM
- flux rate of methylamine in inhibited tissues (bullfrog gastric mucosa [3]): 0.601±0.114 μM/h cm^2
- flux rate of methylamine in stimulated tissues (bullfrog gastric mucosa [3]): 2.25±0.088 μM/h cm^2

Compound: C[C@@H]1O[C@@H](O[C@H]2C[C@@H](O)[C@]3(CO)[C@H]4[C@H](O)C[C@]5(C)[C@@H](C6=CC(=O)OC6)CC[C@]5(O)[C@@H]4CC[C@]3(O)C2)[C@H](O)[C@H](O)[C@H]1O [oubain]
- effect on stimulated acid secretion (in words) (bullfrog gastric mucosa [1]): unchanged; also recorded: little effect on stimulated acid secretion; also recorded: no significant reduction in acid secretion
- acid secretion after 10 mM NH4Cl added to tissues treated with the blocker (bullfrog gastric mucosa [1]; [7]): 0 μEq/hr cm^2
- effect of 10 mM NH4Cl on acid secretion of tissues treated with the blocker (in words) (bullfrog gastric mucosa [1]; [8]): declined

Compound: CCCCNC(=O)NS(=O)(=O)c1ccc(C)cc1 [tolbutamide]
- acid secretion after 10 mM NH4Cl added to tissues treated with the blocker (bullfrog gastric mucosa [1]; [7]): 0 μEq/hr cm^2
- effect of 10 mM NH4Cl on acid secretion of tissues treated with the blocker (in words) (bullfrog gastric mucosa [1]; [8]): abolished
- effect on stimulated acid secretion (in words) (bullfrog gastric mucosa [1]; [9]): no effect on stimulated acid secretion; also recorded: no significant decline
- effect on resistance (R) of stimulated tissues (in words) (bullfrog gastric mucosa [2]; [10]): no effect; also recorded: not significantly different from that of control tissues
- effect on potential difference (PD) of stimulated tissues (in words) (bullfrog gastric mucosa [2]; [11]): no effect
- R after 10 mM NH4Cl added to tissues treated with the blocker (in words) (bullfrog gastric mucosa [2]; [12]): increase in R
- PD after 10 mM NH4Cl added to tissues treated with the blocker (in words) (bullfrog gastric mucosa [2]; [8]): increase in PD
